The text below walks through data of US20230090389A1 (Novartis AG, priority 2020, published 2023).

For test [1], the system named is BRAF mutant human cell line xenograft HT29. The test is described as follows: BRAF mutant human cell line xenograft HT29 in mice. The format is in vivo. The settings on record: clinically relevant doses. (In general: Xenograft models place foreign cells or tissue in a host animal.)
Test [2] deals with six BRAFV600E CRC cell lines. The test is described as follows: growth inhibition (CellTiter-Glo, 7 days) in six BRAF-mutant CRC cell lines. In kind it is cell-based. As to conditions: seven treatment days; dabrafenib 30 nM, Compound A 300 nM, compound B 1.1 μM. On the procedure:
Compound A: selective ATP-competitive ERK1 and ERK2 kinase inhibitor. Compound B: selective allosteric inhibitor of SHP2. The compounds were dissolved in 100% DMSO and stored at -20° C. as 10 mM stock solutions.
In this study, we used six BRAF-mutant colorectal cancer cell lines. We acquired all the cell lines from ATCC and cultured them at 37° C. 5% CO2 in the recommended media conditions: Colo205, LIM2405, SNUC5 and SW1417: RPMI 1640 (Amimed, #1-41F01-I) supplemented with 1% L-glutamine, 10 mM HEPES (Amimed, #5-31F00-H), 1% Na-pyruvate (Amimed, #5-60F00-H), 10% FCS. MDST8: DMEM high glucose (Amimed, #1-26F01-I) supplemented with 1% L-glutamine, 10% FCS. RKO: EMEM (Amimed, #1-31S01-1) supplemented with 1% L-glutamine, 10% FCS. […]
Seven days after treatment initiation, cell growth was determined using CellTiter-Glo® (Promega, #G7573), which measures the amount of ATP in the well. […] Cell lysis was induced for two minutes on an orbital shaker, the plates were incubated at room temperature for ten minutes, and luminescence was recorded.
To summarize the data of this study clearly, the percentage of growth inhibition versus DMSO (% GI) at single compound concentrations were reported. […] Raw data values were normalized to day 0, the time of treatment initiation, so that the % GI could be calculated. […]
For orientation: ATP-based viability assays read luminescence as a measure of living cells.

Turning to `CNC[C@@H](NC(=O)c1ccc(-c2nc([C@H]3CC[C@H](O)[C@@H](F)C3)cnc2N)cc1F)c1cc(F)cc(Br)c1` [Compound A, 4-(3-amino-6-((1S,3 S,4S)-3-fluoro-4-hydroxycyclohexyl)pyrazin-2-yl)-N-((S)-1-(3-bromo-5-fluorophenyl)-2-(methylamino)ethyl)-2-fluorobenzamide], in test [1], the “anti-tumor response, T/C” value stood at 54 % T/C.

Consider `C[C@@H]1OCC2(CCN(c3cnc(Sc4ccnc(N)c4Cl)c(N)n3)CC2)[C@@H]1N` [Compound B, (3S,4S)-8-(6-amino-5-((2-amino-3-chloropyridin-4-yl)thio)pyrazin-2-yl)-3-methyl-2-oxa-8-azaspiro[4.5]decan-4-amine], for which, in test [2], the “cell growth inhibition (% GI vs DMSO)” value is given as “no effect”.

Turning to `CC(C)(C)c1nc(-c2cccc(NS(=O)(=O)c3c(F)cccc3F)c2F)c(-c2ccnc(N)n2)s1` [Dabrafenib, N-(3-(5-(2-aminopyrimidin-4-yl)-2-(tert-butyl)thiazol-4-yl)-2-fluorophenyl)-2,6-difluorobenzenesulfonamide], in test [1], the “anti-tumor response, T/C” value was found to be 59 % T/C.

With `CC(=O)Nc1cccc(-n2c(=O)n(C3CC3)c(=O)c3c(Nc4ccc(I)cc4F)n(C)c(=O)c(C)c32)c1` [Trametinib], the “anti-tumor response, T/C” value in test [1] stood at 48 % T/C.
